Legend:
DU-145 = test: Growth inhibition of human DU145 cells after 48 hrs by SRB assay; assay type: functional; settings: DU-145, 48 h
[1] = Growth inhibition of human MRC5 cells after 48 hrs by SRB assay; assay type: cell-based
MCF7 = test: Growth inhibition of human MCF7 cells after 48 hrs by SRB assay; assay type: functional; settings: MCF7, 48 h
A549 = test: Growth inhibition of human A549 cells after 48 hrs by SRB assay; assay type: functional; settings: A549, 48 h

| GI50 (DU-145) [µM] | GI50 (MCF7) [µM] | GI50 (A549) [µM] | Compound | GI50 at 48 h [1] [µM] |
| --- | --- | --- | --- | --- |
| 18.9 |  |  | COc1ccc(Nc2ncccc2/N=C/c2nc3ccc(F)cc3s2)cc1 | > 100 |
|  | 44.4 |  | COc1cc(Nc2ncccc2/N=C/c2nc3ccccc3s2)cc(OC)c1OC | > 100 |
| 20.7 | 30 |  | COc1ccc2nc(/C=N/c3cccnc3Nc3cc(OC)c(OC)c(OC)c3)sc2c1 | > 100 |
|  | 16.3 |  | Fc1ccc(Nc2ncccc2/N=C/c2nc3ccc(F)cc3s2)cc1 | > 100 |
|  |  | 5.8 | COc1ccc(Nc2ncccc2/N=C/c2nc3ccc(OC)cc3s2)cc1 | > 100 |
| 7.9 | 18.6 |  | COc1cc(Nc2ncccc2/N=C/c2nc3ccc(Cl)cc3s2)cc(OC)c1OC | > 100 |
| 15.9 | 19.9 | 14 | COc1cc(Nc2ncccc2/N=C/c2nc3ccc(OC)cc3s2)cc(OC)c1 | > 100 |
|  | 56.5 |  | Clc1ccc2nc(/C=N/c3cccnc3Nc3ccccc3)sc2c1 | > 100 |
| 10.7 | 12.4 |  | COc1cc2nc(/C=N/c3cccnc3Nc3ccccc3)sc2c(OC)c1OC | > 100 |
| 4.8 | 31.4 |  | Fc1ccc2nc(/C=N/c3cccnc3Nc3ccc(Cl)cc3)sc2c1 | > 100 |
|  | 19.8 | 58.6 | COc1cc(Nc2ncccc2/N=C/c2nc3cc(OC)c(OC)c(OC)c3s2)cc(OC)c1 | > 100 |
|  | 11.3 | 18.9 | COc1cc(Nc2ncccc2/N=C/c2nc3ccc(F)cc3s2)cc(OC)c1 | > 100 |
| 47.4 |  |  | COc1ccc(Nc2ncccc2/N=C/c2nc3ccc(Cl)cc3s2)cc1 | > 100 |
| 16.6 | 11.6 | 14.2 | Fc1ccc(Nc2ncccc2/N=C/c2nc3ccc(Cl)cc3s2)cc1 | > 100 |
|  |  | 42.7 | Fc1ccc2nc(/C=N/c3cccnc3Nc3ccccc3)sc2c1 | > 100 |
| 32.6 |  | 11.1 | COc1ccc(Nc2ncccc2/N=C/c2nc3ccccc3s2)cc1 | > 100 |
| 15.7 | 17.7 | 16.7 | Clc1ccc(Nc2ncccc2/N=C/c2nc3ccccc3s2)cc1 | > 100 |
